“And” between values parts separate entries of the source, which are not always exact repeats. Equal entries are not always repeated. One block for each molecule: values may come before it.
Columns and labels:
[1] = target: T1, AOS (Parthenium argentatum, UniProt Q40778); experiment: Fluorescence spectroscopy of rubber particles incubated with AOS inhibitors; type: biochemical, guayule; set-up: from tissue; host or cells: washed rubber particles of guayule, carrying the endogenous AOS; conditions: native rubber particles incubated with 1 mM inhibitor
T1 sequence (Q40778 1-473): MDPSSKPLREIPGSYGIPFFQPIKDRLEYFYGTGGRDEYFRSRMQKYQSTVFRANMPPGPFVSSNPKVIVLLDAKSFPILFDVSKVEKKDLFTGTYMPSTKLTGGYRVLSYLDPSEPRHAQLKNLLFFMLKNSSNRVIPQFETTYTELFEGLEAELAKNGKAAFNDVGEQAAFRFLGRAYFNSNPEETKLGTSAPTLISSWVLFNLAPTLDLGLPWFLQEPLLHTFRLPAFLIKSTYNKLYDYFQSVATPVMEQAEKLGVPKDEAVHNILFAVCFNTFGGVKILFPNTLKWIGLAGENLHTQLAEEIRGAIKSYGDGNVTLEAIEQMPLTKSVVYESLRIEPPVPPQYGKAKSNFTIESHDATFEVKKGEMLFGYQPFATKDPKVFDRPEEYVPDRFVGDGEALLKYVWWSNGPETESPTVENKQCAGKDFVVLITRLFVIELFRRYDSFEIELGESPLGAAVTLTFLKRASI
Procedure: Rubber particle suspensions containing approximately 5×10^10 particles ml^-1 or 100 μg μl^-1 rubber were extracted for lipids and analyzed according to Yao et al., J Cell Biochem 51: 488-494 (1993); Eldred, Anal. Biochem. 64: 23-36 (1987), Malshet et al., Lipids 9: 328-332 (1974) and above (see sec. 8.1) using a FluoroMax spectrofluoromoeter (JY/SPEX Instruments SA, Inc.) with an excitation maxima of 300 nm and an emission maxima of 405 nm. Background fluorescence was automatically subtracted. […] The effect of pH on relative fluorescence spectroscopy was performed. The effect of pH on relative fluorescence intensities was also determined on lipids extracted from rubber particle lipids according to Malshet et al., Lipids 9: 328-332 (1974).

[2] = test system: rubber transferase (RuT); experiment: Rubber transferase assay in washed rubber particles ([14C]-IPP incorporation); type: biochemical, guayule; set-up: inhibition of RuT activity / inhibition of rubber biosynthesis: concentration or dose not given beside the values
Procedure: RuT assays were performed according to Cornish and Backhaus, Phytochemistry 29: 3809-3813 (1990) using a final reaction volume of 500 μl containing, at final concentration, 3.5 mM MgCl2, 2.5 mM MnCl2 26.7 μM FPP, 85 μM IPP and 1.48 μCi[^14 C]-IPP (sp. act. 57 mCi mM^-1 NEN DuPont) in 50 mM potassium phosphate buffer, pH 8.0. The reaction was initiated by the addition of 200 μl of fresh, triple-washed rubber particle suspensions containing 10-20 mg rubber. Control reactions were made to test IPP incorporation into rubber by omitting FPP or adding 50 mM EDTA to the reaction (Cornish and Backhaus, Phytochem. 29: 3809-3813 (1990)). To control AOS activity, one or more of the following was added to the reaction mix (final concentration): 0.5 to 2 mM SA, 0.5 to 2 mM ASA, 11.2 μM riboflavin plus 11.2 mM TEMED, 0.003% H2 O2, 2.0 U type II porcine pancreatic lipase (Sigma #L-3126) or 9450 U type V soybean lipoxygenase (Sigma #L-6632). These additions were made directly to the washed rubber particles and incubated for 20 min before adding to them to the reaction mix. In reactions that required dark conditions (to prevent the formation of superoxide), assay tubes were foil wrapped. […] H2 O2 was added directly to the particles and incubated for at least 20 min before adding SA or ASA. All RuT assays were run at 15° C. for 16 hours and activity was determined according to Cornish and Backhaus, Phytochemistry 29: 3809-3813 (1990) using liquid scintillation spectroscopy with toluene-based scintillant.

[3] = target: T1, AOS; experiment: Superoxide/colorimetry (riboflavin/TEMED/NBT) assay; conditions: for NBT color after superoxide: rubber particles incubated with inhibitor
[4] = test system: linoleic acid conjugated dienes; experiment: UV spectrophotometry of superoxide-induced linoleic acid conjugated dienes (A234); type: biochemical, guayule; conditions: AOS preincubated with 1 mM ASA, then linoleic acid + riboflavin/TEMED
Procedure: Likewise, the effect of superoxide, produced by the riboflavin/TEMED mixture and light, on lipid peroxidation was determined. […] The mixture was exposed to light and scanned in a UV spectrophotometer at 200 to 300 nm at 10 sec intervals for 2 minutes and again at 5 and 10 min. The effect of AOS on superoxide-inducedlinoleic hydroperoxides was determined using partially pure AOS solubilized from fresh rubber particles using the CHAPS extraction and filtration procedure (Pan et al., J Biol Chem 270: 8487-8494, 1995), which removed all remaining rubber. One μg partially pure AOS was added to oxidized linoleic acid and UV scanned at 2 minute intervals.
This mixture was scanned at A234 followed by addition of riboflavin/TEMED and exposure to 10 min. of light, to produce superoxide. The mixture was rescanned at 10 min intervals.

[5] = target: T1, AOS; conditions: for fluorescence over 24 hr, AOS inhibited and antioxidant present: rubber particles, 1 mM ASA plus 1% antioxidant
[6] = target: T1, AOS; experiment: Conjugated dienes in lipids extracted from rubber particles incubated with H2O2 (A234); type: biochemical, guayule; set-up: from tissue; host or cells: washed rubber particles of guayule, carrying the endogenous AOS; conditions: 1 mM inhibitor, 0.05% H2O2
Description: Lipids from these particles were extracted and analyzed spectrophotometrically at 234 nm according to Aust, Lipid peroxidation, In: Greenwald R (ed) CRC Handbook of Methods for Oxygen Radical Research, CRC Press, Boca Raton, pp. 203-207 (1985).

[7] = salicylate + H2O2 in place of superoxide
[8] = salicylate + non-photoreduced riboflavin/TEMED (no superoxide), compared to controls
[9] = salicylate + superoxide (riboflavin/TEMED plus light)

Molecule: O=C(O)c1cc(S(=O)(=O)O)ccc1O [5SSA, 5-sulfosalicylic acid]
fluorescence of rubber particles [1]: did not fluoresce

Molecule: CC(=O)Oc1ccccc1C(=O)O [ASA, acetylsalicylic acid]
RuT activity ([2]; 0.5 mM inhibitor, riboflavin/TEMED + dark (no superoxide)): 599.3 ± 11.8 nmol IPP mg^-1 dry rubber 16 hr^-1
RuT activity ([2]; 1 mM inhibitor, riboflavin/TEMED + dark (no superoxide)): 421.6 ± 105.4 nmol IPP mg^-1 dry rubber 16 hr^-1
inhibition of RuT activity [2, 7]: 89%
inhibition of RuT activity [2, 8]: 20%
inhibition of RuT activity [2, 9]: 88%
NBT color after superoxide [3]: yellow
A234 on exposure to superoxide, AOS first incubated with inhibitor [4]: notable increase in A234
fluorescence of rubber particles [1]: striking increase in fluorescence
fluorescence over 24 hr ([5]; rubber particles in presence of 1 mM ASA): fluorescence increased up to 12 hours and then plateaued
conjugated diene formation in extracted lipids (A234) [6]: Conjugated dienes formed only when AOS was inhibited by ASA in the presence of H2 O2

fluorescence over 24 hr, AOS inhibited and antioxidant present [5]: slight increase in fluorescence
Molecule: Cc1cc(C(C)(C)C)c(O)c(C(C)(C)C)c1 [BHT]

Molecule: [C-]#[O+] [CO, carbon monoxide]
restoration of AOS activity ([3]; CO-bound-AOS in rubber particles, high light 1 min): partial restoration of AOS
restoration of AOS activity ([3]; CO-bound-AOS in rubber particles, high light 5 min): maximum restoration of AOS activity
AOS activity ([3]; CO-bound-AOS in rubber particles, more than 5 min high light): reduction in AOS activity
NBT color when CO inhibition was reversed by strong light ([3]; CO-treated rubber particles, strong light): grayish yellow
NBT color after superoxide [3]: yellow

Molecule: O=C(O)c1ccccc1O [SA, salicylic acid]
drop in RuT activity ([2]; 1 mM SA alone, 960 min): 10-30%
RuT activity ([2]; 1 mM SA alone, Experiment 1): 402.5 ± 18.2 nmol IPP mg^-1 dry rubber 16 hr^-1
RuT activity ([2]; 1 mM SA alone, Experiment 2): 320.4 ± 4.5 nmol IPP mg^-1 dry rubber 16 hr^-1
RuT activity ([2]; 1 mM SA alone, Experiment 3): 315.9 ± 10.6 nmol IPP mg^-1 dry rubber 16 hr^-1
RuT activity ([2]; 1 mM inhibitor, riboflavin/TEMED + light (superoxide)): 74.2 ± 1.29 nmol IPP mg^-1 dry rubber 16 hr^-1 and 98.3 ± 1.56 nmol IPP mg^-1 dry rubber 16 hr^-1 and 74.2 ± 1.3 nmol IPP mg^-1 dry rubber 16 hr^-1
RuT activity ([2]; 1.5 mM inhibitor, no superoxide (dark)): 236.7 ± 3.0 nmol IPP mg^-1 dry rubber 16 h
RuT activity ([2]; 1.5 mM inhibitor, superoxide (light)): 105.3 ± 3.2 nmol IPP mg^-1 dry rubber 16 h
RuT activity ([2]; 2 mM SA, photo reduced and non-photo reduced riboflavin/TEMED): severely inhibited
RuT activity ([2]; 2 mM inhibitor, no superoxide (dark)): 25.1 ± 1.2 nmol IPP mg^-1 dry rubber 16 h
RuT activity ([2]; 2 mM inhibitor, superoxide (light)): 18.5 ± 9.24 nmol IPP mg^-1 dry rubber 16 hr^-1
inhibition of RuT activity [2, 7]: 89%
inhibition of RuT activity [2, 8]: 20%
inhibition of RuT activity [2, 9]: 88%
NBT color after superoxide [3]: yellow
fluorescence of rubber particles [1]: Identical fluorescence patterns

fluorescence of rubber particles [1]: did not fluoresce
Molecule: OCc1ccccc1O[C@@H]1O[C@H](CO)[C@@H](O)[C@H](O)[C@H]1O [SAL, salicin]

fluorescence over 24 hr, AOS inhibited and antioxidant present [5]: slight increase in fluorescence
Molecule: Cc1c(C)c2c(c(C)c1O)CCC(C)(CCCC(C)CCCC(C)CCCC(C)C)O2 (stereo not drawn) [α-tocopherol]

RuT activity ([2]; lipoxygenase alone): activity similar to positive controls
RuT activity ([2]; lipoxygenase alone, listed as Lipoxygenase): did not appear to affect RuT activity
inhibition of rubber biosynthesis ([2]; lipoxygenase treatment and AOS inhibition): 30%
B1: lipoxygenase: type V soybean lipoxygenase (Sigma #L-6632) (protein, UniProt P08170 1-839, looked up)
Seed linoleate …: MFSAGHKIKGTVVLMPKNELEVNPDGSAVDNLNAFLGRSVSLQLISATKADAHGKGKVGKDTFLEGINTSLPTLGAGESAFNIHFEWDGSMGIPGAFYIKNYMQVEFFLKSLTLEAISNQGTIRFVCNSWVYNTKLYKSVRIFFANHTYVPSETPAPLVSYREEELKSLRGNGTGERKEYDRIYDYDVYNDLGNPDKSEKLARPVLGGSSTFPYPRRGRTGRGPTVTDPNTEKQGEVFYVPRDENLGHLKSKDALEIGTKSLSQIVQPAFESAFDLKSTPIEFHSFQDVHDLYEGGIKLPRDVISTIIPLPVIKELYRTDGQHILKFPQPHVVQVSQSAWMTDEEFAREMIAGVNPCVIRGLEEFPPKSNLDPAIYGDQSSKITADSLDLDGYTMDEALGSRRLFMLDYHDIFMPYVRQINQLNSAKTYATRTILFLREDGTLKPVAIELSLPHSAGDLSAAVSQVVLPAKEGVESTIWLLAKAYVIVNDSCYHQLMSHWLNTHAAMEPFVIATHRHLSVLHPIYKLLTPHYRNNMNINALARQSLINANGIIETTFLPSKYSVEMSSAVYKNWVFTDQALPADLIKRGVAIKDPSTPHGVRLLIEDYPYAADGLEIWAAIKTWVQEYVPLYYARDDDVKNDSELQHWWKEAVEKGHGDLKDKPWWPKLQTLEDLVEVCLIIIWIASALHAAVNFGQYPYGGLIMNRPTASRRLLPEKGTPEYEEMINNHEKAYLRTITSKLPTLISLSVIEILSTHASDEVYLGQRDNPHWTSDSKALQAFQKFGNKLKEIEEKLVRRNNDPSLQGNRLGPVQLPYTLLYPSSEEGLTFRGIPNSISI

— US6132711A, “Enzymatic antioxidant of allene oxide for lipid peroxidation in biological systems” (Arizona Board of Regents, priority 1997, dated 2000)
